How the values were obtained:
Cannabinoid receptor 2 [1] = target: T1, Cannabinoid receptor 2 (Homo sapiens, UniProt P34972); experiment: Activity at CB2 receptor (unknown origin)
Homo sapiens [2] = organism: Homo sapiens; experiment: Selectivity index, ratio of EC50 for human CB1 receptor to Ki for human CB2 receptor
Cannabinoid receptor 1 [3] = target: T2, Cannabinoid receptor 1 (Homo sapiens, UniProt P21554); experiment: Agonist activity at human CB1 receptor expressed in mouse AtT-20 cells co expressing GIRK by FLIPR assay; type: cell-based
Cannabinoid receptor 2 [4] = target: T1, Cannabinoid receptor 2; experiment: Agonist activity at human CB2 receptor expressed in mouse AtT-20 cells co expressing GIRK by FLIPR assay; type: cell-based
Cannabinoid receptor 2 [5] = target: T1, Cannabinoid receptor 2; experiment: Binding affinity to CB2 receptor (unknown origin)
Cannabinoid receptor 1 [6] = target: T2, Cannabinoid receptor 1; experiment: Binding affinity to CB1 receptor (unknown origin)
Homo sapiens [7] = organism: Homo sapiens; experiment: Selectivity index, ratio of Ki for CB1 receptor (unknown origin) to Ki for CB2 receptor (unknown origin)
Cannabinoid receptor 2 [8] = target: T1, Cannabinoid receptor 2; experiment: Inhibition of CB2 receptor (unknown origin)

T1 sequence (P34972 whole entry): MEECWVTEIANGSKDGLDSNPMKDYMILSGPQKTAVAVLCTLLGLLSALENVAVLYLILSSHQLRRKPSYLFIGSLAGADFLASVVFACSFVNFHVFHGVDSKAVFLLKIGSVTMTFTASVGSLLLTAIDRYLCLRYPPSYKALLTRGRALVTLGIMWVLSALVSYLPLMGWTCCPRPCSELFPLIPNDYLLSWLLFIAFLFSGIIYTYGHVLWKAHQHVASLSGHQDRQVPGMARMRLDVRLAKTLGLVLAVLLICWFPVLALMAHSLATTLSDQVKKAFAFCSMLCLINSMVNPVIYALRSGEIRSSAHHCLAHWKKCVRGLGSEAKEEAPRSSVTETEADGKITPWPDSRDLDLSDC
T2 sequence (P21554 whole entry): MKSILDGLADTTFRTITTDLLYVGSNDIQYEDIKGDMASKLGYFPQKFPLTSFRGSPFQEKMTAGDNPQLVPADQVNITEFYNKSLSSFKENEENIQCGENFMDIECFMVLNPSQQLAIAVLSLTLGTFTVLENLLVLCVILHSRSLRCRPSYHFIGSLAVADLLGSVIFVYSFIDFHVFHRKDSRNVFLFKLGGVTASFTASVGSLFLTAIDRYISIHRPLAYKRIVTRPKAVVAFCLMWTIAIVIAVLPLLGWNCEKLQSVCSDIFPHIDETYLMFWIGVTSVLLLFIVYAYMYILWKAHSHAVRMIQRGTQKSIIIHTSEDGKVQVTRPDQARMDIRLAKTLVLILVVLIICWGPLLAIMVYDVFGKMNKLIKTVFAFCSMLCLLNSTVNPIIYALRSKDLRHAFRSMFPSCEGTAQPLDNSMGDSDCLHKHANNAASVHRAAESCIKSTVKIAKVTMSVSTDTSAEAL

Work on `CCOc1nc(NC2CCCC2)nc(N2CCN(CC[18F])CC2)n1` yielded an EC50 (Cannabinoid receptor 2 [1]) of 40 nM.
With `CC(C)[C@H](NC(=O)c1nn(CC2CCCCC2)c2ccccc12)C(N)=O` the Ratio EC50 (Homo sapiens [2]) was 1.5 to 3.2 and the EC50 (Cannabinoid receptor 1 [3]) was 2.1 to 7.8 nM.
`CCCCn1cc(C(=O)c2ccccc2OC)c2ccccc21` was tested, and the Selectivity Index (Homo sapiens [2]) was 39.6, the EC50 (Cannabinoid receptor 1 [3]) was 178 nM and the EC50 (Cannabinoid receptor 2 [4]) was 4.5 nM.
For `CCCCCn1nc(C(=O)N[C@H](C(N)=O)C(C)C)c2ccccc21`, the Ratio EC50 (Homo sapiens [2]) was 1.5 to 3.2 and the EC50 (Cannabinoid receptor 1 [3]) was 2.1 to 7.8 nM.
`CC(C)[C@H](NC(=O)c1nn(CCCCCF)c2ccccc12)C(N)=O` showed a Ratio EC50 (Homo sapiens [2]) of 1.5 to 3.2 and an EC50 (Cannabinoid receptor 1 [3]) of 2.1 to 7.8 nM.
`COc1cccc2c(=O)c(C(=O)NC34CC5CC(CC(C5)C3)C4)cn(CCOCC[18F])c12` was tested, and the Ki (Cannabinoid receptor 2 [5]) was 1.2 nM and the Ki (Cannabinoid receptor 1 [6]) was > 10000 nM.
`CCCc1sc(NC(=O)C23CC4CC(CC(C4)C2)C3)c(C(=O)OC)c1C` showed a Ratio Ki (Homo sapiens [7]; tested as the 11C-labelled form) of 256.
With `CCCc1sc(NC(=O)C23CC4CC(CC(C4)C2)C3)c(C(=O)O[11CH3])c1C` the Ki (Cannabinoid receptor 2 [5]) was 4.3 nM and the Ki (Cannabinoid receptor 1 [6]) was 1100 nM.
Work on `[2H]C([2H])([18F])Oc1nc(NCCc2ccc(F)cc2)nc(-c2ccc(Cl)c(C(C)(C)O)c2)n1` yielded an IC50 (Cannabinoid receptor 2 [8]) of 1.4 nM.
In the case of `CCOCCn1cc(C(=O)NC23CC4CC(CC(C4)C2)C3)c(=O)c2cccc(O[11CH3])c21`, the Ki (Cannabinoid receptor 1 [6]) is reported as > 10000 nM.
For `CC(C)[C@H](NC(=O)c1nn(Cc2ccc(F)cc2)c2ccccc12)C(N)=O`, the EC50 (Cannabinoid receptor 1 [3]) was 2.1 to 7.8 nM.
In the case of `CCCCCn1cc(C(=O)c2ccccc2OC)c2ccccc21`, the Selectivity Index (Homo sapiens [2]) is reported as 7.8, the EC50 (Cannabinoid receptor 1 [3]) is reported as 54 nM and the EC50 (Cannabinoid receptor 2 [4]) is reported as 6.9 nM.
With `COc1cccc2c(=O)c(C(=O)NC34CC5CC(CC(C5)C3)C4)cn(CCOCCF)c12` the Ratio Ki (Homo sapiens [7]; tested as the 18F-labelled form) was > 8330.
